Numbered stars: 1 amine (or outer) side, 2 acyl side, 3 side chain; on linkers, the order of the positions; unused ones are H or OH. Bridge positions count the residues as written; N and C are the ends. Side chains are listed from the residue outwards. Peptide text beside a SMILES is read from it. * marks the point of attachment. ξ: configuration not given here. DOTA = O=C(O)CN1CCN(CC(=O)O)CCN(CC(=O)*)CCN(CC(=O)O)CC1; C16 diacid = O=C(O)CCCCCCCCCCCCCCC(=O)*; ξγGlu = O=C(O)C(CCC(=O)[*:2])N[*:1]; Myristoyl = CCCCCCCCCCCCCC(=O)*
Assays:
[1] = design: species or system NMRI mice; settings: mouse, in vivo
Method: DOTA coupled peptides were labeled with ^68Ga as described previously (Wischnjow et al., 2016). In short ^68Ga was eluted from the generator into a tube containing 20 nmol of the peptide and 0.5% ascorbic acid in 0.5 M Na-acetate buffer. The mixture was incubated at pH 3.5-4.0 for 10′ at 95° C. while stirring to allow for the ^68Ga-DOTA complex to form. Free ^68Ga was removed using C18 solid phase extraction cartridges (Thermo Scientific, USA) and the product was checked by HPLC (Agilent Technologies, USA) equipped with a radio flow detector. The labeled peptide was injected i.v. into NMRI mice. PET analysis was carried out for 0-1 h and for another 20′ after 2 h while cumulative pictures are shown for 0-20 min, 40-60 min and 120-140 min.
Data was normalized for animal weight and injected dose and pictures and data are given as standardized uptake value [SUV]. For quantitative comparison the area under the curve for the SUV values of the different regions was determined and compared by Student's t-test.

[2] = Serum stability of 177Lu-labelled peptides; format: in vitro ADME; settings: human serum, 37° C., after 24 h, 177Lu label
Method: The cyclic peptide CycK(DOTA)K(Myr)R4E and the linear peptide K(DOTA)K(Myr)R4E were labeled with ^177Lu. In short 20 nmol of peptides were incubated with ^177Lu in 0.4 M Na-acetate buffer (pH 5.0) for 10′ at 95° C. Free ^177Lu was removed by C18 solid phase extraction cartridges, the products eluted with EtOH and checked by radio-HPLC. The radiolabelled peptides were reconstituted in human serum (H4522; Sigma-Aldrich) and incubated in serum at 37° C. for the times indicated. Serum was precipitated by addition of two parts acetonitrile centrifuged for 10 min at 13000 g and the supernatant analysed by HPLC (Agilent Technologies, USA) fitted with a radio flow detector using a 10 min gradient of 0-60% acetonitrile in water (0.1% TFA).

[3] = test system: human serum albumin (HSA); experiment: Competitive inhibition of HSA MG-H1 formation; format: biochemical; settings: for prevention of HSA-MG-H1 formation: FIG. 2B, HSA with MG and scavenger
Method: In short, pure MG-1,1-dimethylacetal was heated in sulphuric acid solution for 1 h and fractionally distilled in a column containing glass helices under reduced pressure. Fractions were analyzed by ^1H and ^13C NMR. […] Two parts urea (8M urea, 0.5 M TrisHCl; pH8.0) were added to the solution and the sample was vortexed. HSA was precipitated by addition of two parts acetonitrile (respective to the final sample/urea mixture) and collected by centrifugation for 10′ at 13000 g. […] The HSA containing pellet was dissolved in 20 mM HCl and the protein content was determined by BCA assay. […] The amount of HSA-MG-H1 adduct was determined by LC-MS. Samples and standard curve were spiked with d3-MG-H1 (Polypeptide Group, San Diego, Calif., USA) and derivatized with Fmoc-Cl. Separation was performed on a C18 column (Hypersil Gold aQ; Thermo Scientific, USA) using a 20 min gradient of 0-100% acetonitrile (0.1% TFA) with the first five minutes diverted to waste. Analysis was carried out on an Exactive Orbitrap MS system (Thermo Scientific, USA). […] The calibration range used for the assay was 0-30 pmol.

[4] = test system: murine cardiac endothelial cells; format: cell-based; settings: mouse, 48 h, 1 mM
Method: Murine cardiac endothelial cells were seeded on gelatine pre-coated 96 well plates at a density of 5000 cells per well in DMEM (1 g/1 glucose, 5% FCS, 1% Pen/Strep, 1% AmpB, 1% HEPES). On the following day cells were switched to medium containing only 0.1% FCS. […] MTT ((3-(4,5-Dimethylthiazol-2-yl)-2,5-Diphenyltetrazolium Bromide)) solution (50 μl of 2 mg/ml in PBS) was added to the wells and the plate was incubated at 37° C. for 3-4 h. Medium was removed and 200 μl of DMSO was added to lyse cells and solubilise the purple formazan crystals. The plate was incubated for 1 h at room temperature on a shaker and absorbance was measured at 590 nm. Intensity for untreated cells was set to 100%.

[5] = 400 µM, pH 7.4
Method: (§1) Scavengers (400 μM) were incubated with MG (200 μM) in 0.1 M phosphate buffer, pH 7.4 at 37° C. The kinetics of the scavenging reaction was followed for 48 h. Samples were frozen in liquid nitrogen and stored at −80° C. until analysis. MG content was quantified by HPLC as described below.
(§2) In short samples were precipitated with 20% TCA at a ratio of 2/1 and vortex mixed. Internal standards ^13C MG (LC-MS/MS analysis) or 2,3-dimethylquinoxaline (HPLC analysis) and water was added and the sample mixed again. Samples were centrifuged at 13,000 g at 4° C. for 5 min and the supernatant derivatized with 1,2-diaminobenzene in the presence of sodium azide for 4 h at RT. For HPLC based MG analysis the linear gradient was 0-6% acetonitrile in 15 min. The MG-1,2-diaminobenzene adduct 2-methylquinoxaline and the internal standard 2,3-dimethylquinoxaline were detected with a UV monitor at 320 nm and eluted at 12.7 min and 14.2 min, respectively. For LC-MS/MS, samples were analyzed using an ACQUITY UPLC I equipped with a Xevo TQ-S mass spectrometer (Waters, USA). Samples were separated on BEH C18 analytical column (2.1×50 mm, 1.7 μm) fitted with pre-column (2.1×5 mm, 1.7 μm). Solvent A was water+0.1% formic and solvent B was 50% acetonitrile+0.1% formic acid and a linear gradient from 0-100% solvent B, over ten minutes was used with a flow rate of 0.2 ml/min. Injection volume was 1 μl and the column temperature was 20° C. The quinoxaline analytes were detected by electrospray positive ionization-mass spectrometric multiple-reaction monitoring (MRM). The source temperature was 150° C. and the desolvation gas temperature was 350° C. The cone gas and desolvation gas flow rates were 150 and 800 l/hr, respectively. The capillary voltage was 0.5 kV and the cone voltage was 20V. Mass transitions (parent ion >fragment ion; collision energy) and retention time were as follows: MG 145.01>77.10; 24 eV, 5.93 mins; [^13C3]-MG 148.07>77.16; 24 eV, 5.92 mins. The standard curve was in the range of 0-20 pmol and 0-1 nmol for LC MS/MS analysis and HPLC analysis, respectively.

[6] = test system: washed human whole blood
Method: (§3) Human whole blood was collected into EDTA tubes and centrifuged at 500 g at RT for 5 min. The plasma and buffy coat was removed and saline solution was added to the haematocrit containing pellet to the previous plasma level to wash the erythrocytes. The tube was gently inverted several times and centrifuged again at 500 g. This procedure was repeated until the supernatant remained clear (approx. 4 times). After the last centrifugation step the hematocrit was re-suspended in PBS to reach the original blood volume. […] Haemolysis was compared to saline solution (negative control; 0% haemolysis) and 1% Triton X100 solution (positive control; 100% haemolysis).

[7] = in vivo; settings: C57/B16, mouse, ip
Method: Blood was collected by cardiac puncture in an aesthetised mice at time points 10′, 30′, 1 h, 4 h, 8 h and 24 h into tubes containing EDTA. Plasma was collected after centrifugation at 3000 g for 5′ at room temperature and frozen in liquid nitrogen.
Plasma was acidified with 5% TFA (5 μl/30 μl), acetonitrile (60 μl) was added and the tubes vortexed. Another 120 μl of acetonitrile were added and samples were ultrasonicated for 5 min. Samples were spun for 20 min at 13000 g. The supernatant (180 μl) was collected, mixed with 180 μl of water and freeze dried. The sample was resuspended in 30 μl of a mixture of acetonitrile/water (ratio of 1/1) containing 0.1% TFA. The samples was analysed by LC MS. Concentration was calculated by normalisation for the internal standard in combination with linear regression of a standard curve. Concentration/time-points were fitted using a one phase exponential decay model to determine the half-life of the drug.

[8] = test system: washed human whole blood; experiment: Hemolysis; settings: 37° C., 30 min
Method: as §3

[9] = Kinsky et al., 2016; cited from earlier work
[10] = MG scavenging in vitro (MG half-life by HPLC)
Method: as §1, §2

**Q.** Which results are given for CCCCCCCCCCCCCC(=O)NCCCC[C@@H]1NC(=O)[C@H](CCCCNC(=O)CN2CCN(CC(=O)O)CCN(CC(=O)O)CCN(CC(=O)O)CC2)NC(=O)CC[C@@H](C(=O)O)NC(=O)[C@H](CCCNC(=N)N)NC(=O)[C@H](CCCNC(=N)N)NC(=O)[C@H](CCCNC(=N)N)NC(=O)[C@H](CCCNC(=N)N)NC1=O [CycK(DOTA)K(Myr)R4E] (K(DOTA)K(Myristoyl)RRRRE-OH; lactam N-7)?
**A.** SUV in the bladder [1]: lower; SUV in the kidney [1]: similar; SUV values in the heart, muscle and liver [1]: higher; accumulation in the kidneys [1]: strong accumulation in the kidneys; circulates for [1]: over 140 min; peptide remaining [2]: 86.16%

**Q.** What does the source list for N=C(N)NCCC[C@@H]1NC(=O)[C@H](CCCNC(=N)N)NC(=O)[C@H](CCCNC(=N)N)NC(=O)[C@H](CCCNC(=N)N)NC(=O)[C@H](CCCCNC(=O)CCC(NC(=O)CCCCCCCCCCCCCCC(=O)O)C(=O)O)NC(=O)CC[C@@H](C(=O)O)NC1=O (stereo partly shown) [CycK(e-Hdd)R4E] (K([ξγGlu-C16 diacid])RRRRE-OH; lactam N-6)?
**A.** prevention of modification of HSA with MG-H1 ([3]; FIG. 9, peptides 400 μM, HSA 400 μM, MG 200 μM): significantly prevented; viability relative to untreated cells [4]: 75%; MG t1/2 [5]: 1.1 h; hemolysis (in words) [6]: does not cause hemolysis even at high concentrations; half-life [7]: ~480 min

**Q.** Which “concentration above which significant hemolysis is displayed” value [8] does the source give for CCCCCCCCCCCCCC(=O)NCCCC[C@@H]1NC(=O)CC[C@@H](C(=O)O)NC(=O)[C@H](CCCNC(=N)N)NC(=O)[C@H](CCCNC(=N)N)NC(=O)[C@H](CCCNC(=N)N)NC(=O)[C@H](CCCNC(=N)N)NC1=O [CycK(Myr)R4E] (K(Myristoyl)RRRRE-OH; lactam N-6) here?
**A.** over 50 μM

**Q.** With N=C(N)NN [Agd, aminoguanidine] as the molecule, how does the “prevention of HSA-MG-H1 formation” value [3] read?
**A.** tended to be more efficient

**Q.** For N=C(N)NCCC[C@@H]1NC(=O)[C@H](CCCNC(=N)N)NC(=O)[C@H](CCCNC(=N)N)NC(=O)[C@H](CCCNC(=N)N)NC(=O)[C@H](CCCCNC(=O)CN2CCN(CC(=O)O)CCN(CC(=O)O)CCN(CC(=O)O)CC2)NC(=O)CC[C@@H](C(=O)O)NC1=O (68Ga complex, metal not drawn) [CycK(DOTA)R4E] (K(DOTA)RRRRE-OH; lactam N-6), which completely excreted after [1] is on record?
**A.** ≤ 140 min

**Q.** And the “excreted almost completely within/after” value ([1]; iv)?
**A.** ≤ 20 min

**Q.** Which “prevention of HSA-MG-H1 formation” value [3] does the source give for CN(C)C(=N)N=C(N)N [Met, metformin] here?
**A.** did not significantly prevent

**Q.** What about the “MG-metformin adduct concentration in the urine” value [9] of the same molecule?
**A.** up to 4 μM

**Q.** Which peptide remaining [2] does the source give for CCCCCCCCCCCCCC(=O)NCCCC[C@H](NC(=O)[C@@H](N)CCCCNC(=O)CN1CCN(CC(=O)O)CCN(CC(=O)O)CCN(CC(=O)O)CC1)C(=O)N[C@@H](CCCNC(=N)N)C(=O)N[C@@H](CCCNC(=N)N)C(=O)N[C@@H](CCCNC(=N)N)C(=O)N[C@@H](CCCNC(=N)N)C(=O)N[C@@H](CCC(=O)O)C(=O)O [K(DOTA)K(Myr)R4E] (H-K(DOTA)K(Myristoyl)RRRRE-OH; N-terminus assumed) here?
**A.** 33.4%

**Q.** With Cc1ncc(CO)c(CN)c1O [Pyr, pyridoxamine] as the molecule, how does the “prevention of HSA-MG-H1 formation” value [3] read?
**A.** did not significantly prevent

**Q.** For NCCC(=O)N[C@@H](Cc1cnc[nH]1)C(=O)O [Car, carnosine], which “prevention of HSA-MG-H1 formation” value [3] is on record?
**A.** nor did it prevent

**Q.** And the “MG scavenging (in words)” value [10]?
**A.** neither scavenged MG

**Q.** Which “MG scavenging (in words)” value [10] does the source give for CN(CC(=O)O)C(=N)N [Cre, creatine] here?
**A.** fastest of the endogenous MG scavengers tested

— patent publication US11202833B2, “Methylglyoxal-scavenging cyclic peptides and their use for the prevention and treatment of diseases associated with elevated methylglyoxal levels” (RUPRECHT-KARLS-UNIVERSITÄT HEIDELBERG, priority 2016, dated 2021)
